Experimental findings from patent US12507703B2, “Methods, devices and compositions for preserving human milk” (The Trustees of Princeton University, priority 2023, dated 2025) are described below.

Several values for one entry are separate records, joined by “and”; a condition that tells them apart may be missing. Equal entries are not always repeated.

The subject of this experiment is lipase. As to the kind of experiment: Lipase/lipolysis assay (EnzChek Lipase Substrate, quenched BODIPY-fatty acid conjugate) on stored human milk. Further: test concentration or dose not given here.
For the compound `CC(=O)OC(C)(C)/C=C/C(=O)[C@](C)(O)[C@H]1[C@H](O)C[C@@]2(C)[C@@H]3CC=C4[C@@H](C=C(O)C(=O)C4(C)C)[C@]3(C)C(=O)C[C@]12C` [Cucurbitacin E], the “Lipase (RFU)” value came to 641.6726 RFU. For `O=C(O)C[C@H](O)C(=O)O` [L-Malic Acid] the value was 1144.049 RFU.

Turning to `COc1ccc(C)cc1` [Compound 4-Methylanisole, 4-Methylanisole], the “Lipase (RFU)” value is 864.3612 RFU and 916.5396 RFU. Regarding `O=C[C@H](O)[C@@H](O)[C@H](O)[C@H](O)COP(=O)([O-])[O-].[Na+].[Na+]` [D-Glucose 6-phosphate (disodium salt)], the “Lipase (RFU)” value amounted to 1238.699 RFU.

Turning to `O=C(O)[C@H](O)[C@@H](O)[C@H](O)[C@H](O)CO` [D-Gluconic Acid], the “Lipase (RFU)” value was determined as 876.4287 RFU. Regarding `COc1ccc(C(=O)O)cc1OC` [Veratric acid], the “Lipase (RFU)” value was found to be 944.3491 RFU. On to `O=S(=O)(O)SSS(=O)(=O)O` [Tetrathionate], for which the “Lipase (RFU)” value was 924.2846 RFU.

In the case of `O=C([O-])[C@H](O)[C@@H](O)[C@H](O)[C@H](O)CO.[Na+]` [Gluconate (sodium)], the “Lipase (RFU)” value turned out to be 1019.914 RFU. For `O=C(O)C1CSSC1` [Asparagusic acid] the value was 934.8474 RFU.

On to `C=C[C@]1(C)CC[C@@H](C(=C)C)C[C@H]1C(=C)C` [β-Elemene], for which the “Lipase (RFU)” value was 1099.979 RFU. Take `COc1cc2c(cc1OC)[C@@H]1C(=O)c3ccc4c(c3O[C@@H]1CO2)C=CC(C)(C)O4` [Deguelin]: the “Lipase (RFU)” value worked out at 955.3932 RFU. Take `CSCC[C@H](NC=O)C(=O)O` [For-Met-OH]: the “Lipase (RFU)” value amounted to 819.8295 RFU.

Consider `OC[C@@]12OC[C@@H](O1)[C@@H](O)[C@@H](O)[C@@H]2O` [Sedoheptulosan], for which the “Lipase (RFU)” value is recorded as 1068.783 RFU. On to β-Alanine, for which the “Lipase (RFU)” value was 882.8696 RFU and 1205.931 RFU. For `C[C@H](CCC(=O)NCCS(=O)(=O)[O-])[C@H]1CC[C@H]2[C@@H]3[C@@H](O)C[C@@H]4C[C@H](O)CC[C@]4(C)[C@H]3CC[C@]12C.[Na+]` [Tauroursodeoxycholate (sodium)] the value was 939.6362 RFU; for `Oc1cc(O)c2c(c1)O[C@H](c1ccc(O)c(O)c1)[C@H](O)C2` [(−)-Epicatechin], 927.1089 RFU; for `COc1ccc([C@@H]2CC(=O)c3c(O)cc(O[C@@H]4O[C@H](CO)[C@@H](O)[C@H](O)[C@H]4O)cc3O2)cc1` [Isosakuranin], 864.5248 RFU. As to `O=C(O)c1cc(O)c2c(c1)[C@H]([C@H]1c3cc(C(=O)O)cc(O)c3C(=O)c3c(O[C@@H]4O[C@H](CO)[C@@H](O)[C@H](O)[C@H]4O)cccc31)c1cccc(O[C@@H]3O[C@H](CO)[C@@H](O)[C@H](O)[C@H]3O)c1C2=O` [Sennoside A], the “Lipase (RFU)” value is 1002.323 RFU. Then `CC(C)(C)CC(C)(C)c1ccc(O)cc1` [Compound 4-tert-Octylphenol, 4-tert-Octylphenol], with 868.4892 RFU.

As for `Cc1cc(O)c2c(c1)C(=O)c1cc(O)cc(O[C@@H]3O[C@H](CO)[C@@H](O)[C@H](O)[C@H]3O)c1C2=O` [Emodin-1-O-β-D-glucopyranoside], the “Lipase (RFU)” value stood at 964.8621 RFU. Take `CC(=O)CCc1ccc2c(c1)OCO2` [Piperonyl acetone]: the “Lipase (RFU)” value is recorded as 718.0889 RFU.

Consider `CCCCC[C@H](O)/C=C/[C@H]1[C@H](O)CC(=O)[C@@H]1CCCCCCC(=O)O` [Prostaglandin E1], for which the “Lipase (RFU)” value was 787.5664 RFU. As to `N#CC[C@H](N)C(=O)O` [β-cyano-L-Alanine], the “Lipase (RFU)” value stood at 869.3786 RFU. With `Cn1cc(C(N)=O)ccc1=O` [Nudifloramide], the “Lipase (RFU)” value stood at 993.1021 RFU. Then `NCCOP(=O)(O)O` [O-Phosphoryl-Ethanolamine], with 1247.866 RFU. With `CC(C)=CC(=O)C[C@H](C)c1ccc(C)cc1` [ar-Turmerone], the “Lipase (RFU)” value is 1106.99 RFU.
